Here are results for 19 compounds from patent US20130005802A1, “TREATMENT OF WNT/FRIZZLED-RELATED DISEASES” (priority 2009, published 2013).

In this experiment the test system is LEF/TCF transcription factor reporter (TOPFlash). The experiment is described as follows: TOPFlash reporter assay in HEK293 cells. The format is cell-based. As to conditions: Homo sapiens, read-out: TopFlash assay: IC50. The protocol:
To obtain a Frizzled1-GFP stable cell line (Fzd1GFP-U2OS), U2OS cells were transfected with pCS2ratFrizzled1-GFP and pLKO.1 (10:1 ratio by weight), using the Nucleofection transfection protocol from Amaxa, and stable receptor expressing clones were selected using 1.5 μg/mL puromycin in the culture medium. For generating TOPFlash stable cell lines, HEK293 cells were transfected with p8xTOPFlash, the Renilla luciferase plasmid, and pLKO.1 at a ratio by weight of 10:3:1 and stable clones selected using 1 μg/mL puromycin in the growth medium. pLKO.1 was used to confer puromycin resistance to the stable clones.
For the TOPFlash Luciferase assay the TOPFlash stable cells were seeded in 150 μL growing medium/well in 96-well plates at 100% confluency. Fifty microliters of conditioned medium containing the chemical compounds to be tested or DMSO were added to each well. After an 8 hr treatment, the cells were then washed once with PBS, and lysed with 80 μL MPER solution (Pierce, Rockford, Ill.). Thirty microliters of cell lysate were used for measuring luciferase activity in a 96-well plate reader (FluoStar Optima, BMG Labtech, Chicago, Ill.).
LEF/TCF transcription factor reporter (TOPFlash) assay is a general readout for canonical Wnt signaling pathways. […] A Renila luciferase plasmid was also generated to serve as an internal control.
The average TOPFlash reporter activity of Wnt3A plus DMSO treatment was set as 100%, and the relative reporter activity of Wnt3A plus the indicated concentration of niclosmide was calculated and plotted.
The compounds shown in Table 2 were purchased from Sigma-Aldrich (St. Louis, Mo.) or Chembridge (San Diego, Calif.). The activity of each of the compounds as a negative modulator of the Wnt/Frizzled signaling pathway was examined using the Top-flash assay, as described above.
A general note: Reporter assays use an easily measured gene product as a stand-in for the process of interest.
Consider `Nc1ccc(NC(=O)c2cc(Cl)ccc2O)c(Cl)c1` [Compound 1-2, N-(4-amino-2-chlorophenyl)-5-chloro-2-hydroxybenzamide], for which the IC50 was above 12.5 µM.

On to `O=C(Nc1ccc([N+](=O)[O-])cc1)c1cc(Cl)ccc1O` [Compound 1-4, 5-chloro-2-hydroxy-N-(4-nitrophenyl)benzamide], for which the IC50 was below 1 µM.

Take `COc1ccc(Cl)cc1C(=O)Nc1ccc([N+](=O)[O-])cc1Cl` [Compound 1-6, Benzamide, 5-chloro-N-(2-chloro-4-nitrophenyl)-2-methoxy-]: the IC50 is above 12.5 µM.

As to `O=C(Nc1ccc([N+](=O)[O-])cc1Cl)c1cccc(Cl)c1` [Compound 1-7, Benzamide, 3-chloro-N-(2-chloro-4-nitrophenyl)-], the IC50 was above 12.5 µM.

In the case of `O=C(Nc1cc(Cl)cc(Cl)c1O)c1c(O)c(Cl)cc(Cl)c1Cl` [Compound 2-1, Oxyclozanide], the IC50 is above 12.5 µM.

Take `O=C(Nc1ccc(Oc2ccc(Cl)cc2)c(Cl)c1)c1cc(I)cc(I)c1O` [Compound 2-2, Rafoxanide]: the IC50 is above 12.5 µM.

Take `Cc1cc(C(C#N)c2ccc(Cl)cc2)c(Cl)cc1NC(=O)c1cc(I)cc(I)c1O` (stereo not shown) [Compound 2-3, Closantel]: the IC50 is above 12.5 µM.

As to `O=C(Nc1ccc(Br)cc1)c1cc(Br)cc(Br)c1O` [Compound 2-4, 3,5-dibromo-N-(4-bromophenyl)-2-hydroxybenzamide], the IC50 was above 12.5 µM.

Consider `O=C(Nc1ccc(NS(=O)(=O)c2ccc(Cl)cc2)cc1Cl)c1cc(Cl)ccc1O` [Compound 3-1, 5-chloro-N-(2-chloro-4-{[(4-chlorophenyl)sulfonyl]amino}phenyl)-2-hydroxybenzamide], for which the IC50 is above 12.5 µM.

For `Cc1cc([N+](=O)[O-])c(Cl)cc1NC(=O)c1ccccc1O` [Compound 3-2, N-(5-chloro-2-methyl-4-nitrophenyl)-2-hydroxybenzamide], the IC50 is below 1 µM.

Take `O=C(Nc1ccc([N+](=O)[O-])cc1Cl)c1cc(Cl)cc(Cl)c1O` [Compound 3-3, 3,5-dichloro-N-(2-chloro-4-nitrophenyl)-2-hydroxybenzamide]: the concentration for half-maximal inhibition (IC50) was in the range of 1 to 12.5 µM.

Take `O=C(Nc1ccc([N+](=O)[O-])cc1Cl)c1cc(Br)ccc1O` [Compound 3-4, 5-bromo-N-(2-chloro-4-nitrophenyl)-2-hydroxybenzamide]: the IC50 is below 1 µM.

As for `O=C(Nc1ccc([N+](=O)[O-])cc1)c1cc(Br)ccc1O` [Compound 3-5, 5-bromo-2-hydroxy-N-(4-nitrophenyl)benzamide], the IC50 is below 1 µM.

As to `O=C1c2ccc([N+](=O)[O-])cc2C(=O)N1c1cc(Cl)ccc1O` [Compound 3-6, 2-(5-chloro-2-hydroxyphenyl)-5-nitro-1H-isoindole-1,3(2H)-dione], the IC50 was above 12.5 µM.

Regarding `O=C(Nc1ccc([N+](=O)[O-])cc1Br)c1ccccc1O` [Compound 3-7, N-(2-bromo-4-nitrophenyl)-2-hydroxybenzamide], the IC50 was in the range of 1 to 12.5 µM.

In the case of `O=C(Nc1ccc([N+](=O)[O-])cc1Cl)c1ccccc1O` [Compound 3-8, N-(2-chloro-4-nitrophenyl)-2-hydroxybenzamide], the IC50 lay within 1 to 12.5 µM.

With `COc1cc([N+](=O)[O-])ccc1NC(=O)c1cc(Cl)ccc1O` [Compound 3-9, 5-chloro-2-hydroxy-N-(2-methoxy-4-nitrophenyl)benzamide], the IC50 is below 1 µM.

For `O=C(Nc1cc(Cl)ccc1O)c1ccc([N+](=O)[O-])cc1` [Compound 3-10, N-(5-chloro-2-hydroxyphenyl)-4-nitrobenzamide], the IC50 is above 12.5 µM.

In the case of `CS(=O)(=O)c1ccc(NC(=O)c2cc(Cl)ccc2O)c(Cl)c1` [Compound 3-11, 5-chloro-N-[2-chloro-4-(methylsulfonyl)phenyl]-2-hydroxybenzamide], the IC50 is above 12.5 µM.

What is called IC50 is the concentration that gives 50% inhibition.
